Patent publication US20230174584A1, “Antibiotic Compounds” (priority 2019, published 2023)
In brackets after ≈: the same amount, converted by molar mass.

Tests used:
[1] = tested on: S. aureus 880 (BR-VRSA), NR-49120; experiment: MIC assay; type: cell-based, Staphylococcus aureus
In short: (§1)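 We measured MICs by CLSI broth microdilution with polysorbate 80 (0.002%) in TSB, a 10^6 CFU/mL inoculum, and a 24 h, 37 °C shaken incubation.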

S. aureus ATCC29213 = experiment: MIC assay; type: cell-based, Staphylococcus aureus
In short: as §1

[2] = tested on: S. aureus HIP12864, NR-46074; experiment: MIC assay; type: cell-based, Staphylococcus aureus
In short: as §1

[3] = tested on: S. aureus LIM-2, NR-25881; experiment: MIC assay; type: cell-based, Staphylococcus aureus
In short: as §1

[4] = tested on: S. aureus NY-155, NR-46236; experiment: MIC assay; type: cell-based, Staphylococcus aureus
In short: as §1

E. faecium E0745 = experiment: MIC assay; type: cell-based, Enterococcus faecium; details: E. faecium E0745, VanA
In short: as §1

E. faecium E6016 = experiment: MIC assay; type: cell-based, Enterococcus faecium; details: E. faecium E6016, VanA
In short: as §1

E. faecium E155 = experiment: microbe, parasite or virus in culture; type: cell-based, Enterococcus faecium
In short: as §1

E. faecium E7314 = experiment: microbe, parasite or virus in culture; type: cell-based, Enterococcus faecium
In short: as §1

E. faecalis E7406 = experiment: microbe, parasite or virus in culture; type: cell-based, Enterococcus faecalis
In short: as §1

E. faecalis E7604 = experiment: microbe, parasite or virus in culture; type: cell-based, Enterococcus faecalis
In short: as §1

E. faecium E0341 = experiment: MIC assay; type: cell-based, Enterococcus faecium; details: E. faecium E0341, VanA
S. aureus ATCC29123 = experiment: Lipid II antagonization assay; type: cell-based, Staphylococcus aureus; details: for visible bacterial growth with lipid II / visible bacterial growth without lipid II: 8×MIC of test compound, 24 h; for visible bacterial growth with lipid II: 5-fold molar excess of lipid II; for bacterial growth after co-incubation with lipid II: 8×MIC; on visible bacterial growth with lipid II: key: − means no visible growth; + means visible growth; on visible bacterial growth without lipid II: key: − means no visible growth; + means visible growth
Description: Lipid II in chloroform was added in the appropriate amount (5-fold molar excess compared to test antibiotics) to a 96-well plate and the chloroform was allowed to evaporate. […] Of these dilutions, 50 μL was mixed with the 5-fold molar excess of pure lipid II in triplicates in the plate as well as added to the plate in triplicates without lipid II present. S. aureus ATCC29123 colonies were suspended in TSB with 0.002% p80 by direct colony suspension to an optical density that reached a level equivalent to the 0.5 McFarlan standard. […] The samples were incubated at 37° C. for 24 h with constant shaking (600 rpm) and inspected for visible bacterial growth. Positive growth control consisted of wells with bacterial suspension and without antibiotic or lipid II. Negative growth control consisted of solely media without bacterial suspension, antibiotic or lipid II.
In the antagonization assay, lipid II is co-incubated with the test antibiotics in the presence of bacterial culture. When lipid II binds the glycopeptides, the binding of these antibiotics to their target in the growing bacterial culture is antagonized. This ultimately results in diminished activity of the antibiotics and bacterial growth which normally would not be visible (at 8×MIC) becomes visible. Therefore, this assay could be used to determine if part of the mechanism of action of our compounds involves binding to lipid II.

[5] = S. aureus HIP12864, NR-46074 VISA
[6] = S. aureus NY-155, NR-46236 MRSA
[7] = E. faecium E155, VanA (Table 10)
[8] = E. faecium E7314, VanB (Table 10)

| SMILES | MIC ([1]; S. aureus 880, NR-49120 VRSA) [µg/mL] | MIC ([1]; strain BR-VRSA) [µg/mL] | MIC (S. aureus ATCC29213; S. aureus ATCC29213 MSSA) [µg/mL] | MIC [2, 5] [µg/mL] | MIC ([3]; S. aureus LIM-2, NR-25881 VISA) [µg/mL] | MIC [4, 6] [µg/mL] | MIC (E. faecium E0745) [µg/mL] | MIC (E. faecium E6016) [µg/mL] | MIC (E. faecium E155; [7]) [µg/mL] | MIC (E. faecium E155; E. faecium E155 VRE (VanA)) [µg/mL] | MIC (E. faecium E7314; [8]) [µg/mL] | MIC (E. faecium E7314; E. faecium E7314 VRE (VanB)) [µg/mL] | MIC (E. faecalis E7406; E. faecalis E7406 VRE (VanB)) [µg/mL] | MIC (E. faecalis E7604; E. faecalis E7604 VRE (vanB)) [µg/mL] | MIC (E. faecium E0341) [µg/mL] | visible bacterial growth with lipid II (S. aureus ATCC29123) | visible bacterial growth without lipid II (S. aureus ATCC29123) | bacterial growth after co-incubation with lipid II (S. aureus ATCC29123) | further results |
| --- | --- | --- | --- | --- | --- | --- | --- | --- | --- | --- | --- | --- | --- | --- | --- | --- | --- | --- | --- |
| CCCCCCCNC(N)=Nc1ccc(CN[C@@]2(C)C[C@H](O[C@H]3[C@H](Oc4c5cc6cc4Oc4ccc(cc4Cl)[C@@H](O)[C@@H](NC(=O)[C@@H](CC(C)C)NC)C(=O)N[C@@H](CC(N)=O)C(=O)N[C@H]6C(=O)N[C@H]4C(=O)N[C@H](C(=O)N[C@H](C(=O)O)c6cc(O)cc(O)c6-c6cc4ccc6O)[C@H](O)c4ccc(c(Cl)c4)O5)O[C@H](CO)[C@@H](O)[C@@H]3O)O[C@@H](C)[C@H]2O)cc1 [Compound 5] | 4 (≈ 2.36 µM) | 4 (≈ 2.36 µM) | ≤0.007812 | 0.063 (≈ 0.0372 µM) | 0.031 (≈ 0.0183 µM) | ≤0.008 | 1 (≈ 0.59 µM) | 1 (≈ 0.59 µM) | 2 (≈ 1.18 µM) | 2 (≈ 1.18 µM) | ≤0.008 | 0.007812 (≈ 0.00461 µM) | 0.01562 (≈ 0.00922 µM) | 0.016 (≈ 0.00944 µM) | 8 (≈ 4.72 µM) | + | − | Bacterial growth was visible |  |
| CCCCCCCCNC(N)=Nc1ccc(CN[C@@]2(C)C[C@H](O[C@H]3[C@H](Oc4c5cc6cc4Oc4ccc(cc4Cl)[C@@H](O)[C@@H](NC(=O)[C@@H](CC(C)C)NC)C(=O)N[C@@H](CC(N)=O)C(=O)N[C@H]6C(=O)N[C@H]4C(=O)N[C@H](C(=O)N[C@H](C(=O)O)c6cc(O)cc(O)c6-c6cc4ccc6O)[C@H](O)c4ccc(c(Cl)c4)O5)O[C@H](CO)[C@@H](O)[C@@H]3O)O[C@@H](C)[C@H]2O)cc1 [Compound 6] | 2 (≈ 1.17 µM) |  | ≤0.007812 | ≤0.008 | ≤0.008 | ≤0.008 | 0.25 (≈ 0.146 µM) | 0.5 (≈ 0.293 µM) | 1 (≈ 0.585 µM) | 1 (≈ 0.585 µM) | ≤0.008 | ≤0.007812 | ≤0.007812 | ≤0.008 | 4 (≈ 2.34 µM) | + | − | Bacterial growth was visible |  |
| CCCCCCCCCNC(N)=Nc1ccc(CN[C@@]2(C)C[C@H](O[C@H]3[C@H](Oc4c5cc6cc4Oc4ccc(cc4Cl)[C@@H](O)[C@@H](NC(=O)[C@@H](CC(C)C)NC)C(=O)N[C@@H](CC(N)=O)C(=O)N[C@H]6C(=O)N[C@H]4C(=O)N[C@H](C(=O)N[C@H](C(=O)O)c6cc(O)cc(O)c6-c6cc4ccc6O)[C@H](O)c4ccc(c(Cl)c4)O5)O[C@H](CO)[C@@H](O)[C@@H]3O)O[C@@H](C)[C@H]2O)cc1 [Compound 7] | 0.5 (≈ 0.29 µM) |  | 0.01562 (≈ 0.00907 µM) | ≤0.008 | ≤0.008 | ≤0.008 | 0.125 (≈ 0.0726 µM) | 0.25 (≈ 0.145 µM) | 0.5 (≈ 0.29 µM) | 0.5 (≈ 0.29 µM) | ≤0.008 | ≤0.007812 | ≤0.007812 | ≤0.008 | 1 (≈ 0.58 µM) | + | − | Bacterial growth was visible |  |
| CCCCCCN(CCCCCC)C(N)=Nc1ccc(CN[C@@]2(C)C[C@H](O[C@H]3[C@H](Oc4c5cc6cc4Oc4ccc(cc4Cl)[C@@H](O)[C@@H](NC(=O)[C@@H](CC(C)C)NC)C(=O)N[C@@H](CC(N)=O)C(=O)N[C@H]6C(=O)N[C@H]4C(=O)N[C@H](C(=O)N[C@H](C(=O)O)c6cc(O)cc(O)c6-c6cc4ccc6O)[C@H](O)c4ccc(c(Cl)c4)O5)O[C@H](CO)[C@@H](O)[C@@H]3O)O[C@@H](C)[C@H]2O)cc1 [Compound 12] | 1 (≈ 0.567 µM) | 1 (≈ 0.567 µM) | ≤0.007812 | 0.063 (≈ 0.0357 µM) | ≤0.008 | ≤0.008 | 0.25 (≈ 0.142 µM) | 0.5 (≈ 0.283 µM) | 1 (≈ 0.567 µM) | 1 (≈ 0.567 µM) | ≤0.008 | ≤0.007812 | ≤0.007812 | ≤0.008 | 2 (≈ 1.13 µM) |  |  |  |  |
| CN[C@H](CC(C)C)C(=O)N[C@H]1C(=O)N[C@@H](CC(N)=O)C(=O)N[C@H]2C(=O)N[C@H]3C(=O)N[C@H](C(=O)N[C@H](C(=O)O)c4cc(O)cc(O)c4-c4cc3ccc4O)[C@H](O)c3ccc(c(Cl)c3)Oc3cc2cc(c3O[C@@H]2O[C@H](CO)[C@@H](O)[C@H](O)[C@H]2O[C@H]2C[C@](C)(NCc3ccc(N=C(N)NC/C=C(\C)CCC=C(C)C)cc3)[C@H](O)[C@H](C)O2)Oc2ccc(cc2Cl)[C@H]1O [Compound 14] | 1 (≈ 0.577 µM) |  | ≤0.007812 | 0.031 (≈ 0.0179 µM) | ≤0.008 | ≤0.008 | 1 (≈ 0.577 µM) | 2 (≈ 1.15 µM) | 1 (≈ 0.577 µM) | 1 (≈ 0.577 µM) | ≤0.008 | ≤0.007812 | ≤0.007812 | ≤0.008 | 4 (≈ 2.31 µM) | + | − | Bacterial growth was visible |  |
| CN[C@H](CC(C)C)C(=O)N[C@H]1C(=O)N[C@@H](CC(N)=O)C(=O)N[C@H]2C(=O)N[C@H]3C(=O)N[C@H](C(=O)N[C@H](C(=O)O)c4cc(O)cc(O)c4-c4cc3ccc4O)[C@H](O[C@H]3C[C@](C)(N)[C@@H](O)[C@H](C)O3)c3ccc(c(Cl)c3)Oc3cc2cc(c3O[C@@H]2O[C@H](CO)[C@@H](O)[C@H](O)[C@H]2O[C@H]2C[C@](C)(NCc3ccc(-c4ccc(Cl)cc4)cc3)[C@@H](O)[C@H](C)O2)Oc2ccc(cc2Cl)[C@H]1O [Oritavancin] |  | 0.25 (≈ 0.139 µM) |  |  |  |  |  |  |  |  |  |  |  |  |  |  |  |  | MIC ([1]; Staphylococcus aureus, VRSA): 0.25 µg/mL (≈ 0.139 µM); MIC (S. aureus ATCC29213; Staphylococcus aureus, ATCC 29213 / MSSA): 0.25 µg/mL (≈ 0.139 µM); MIC ([2]; Staphylococcus aureus, VISA): 4 µg/mL (≈ 2.23 µM); MIC ([3]; Staphylococcus aureus, VISA): 1 µg/mL (≈ 0.558 µM); MIC ([4]; Staphylococcus aureus, MRSA): 0.25 µg/mL (≈ 0.139 µM); MIC (E. faecium E155; Enterococcus faecium, VRE): 0.5 µg/mL (≈ 0.279 µM); MIC (E. faecium E7314; Enterococcus faecium, VRE): 0.125 µg/mL (≈ 0.0697 µM); MIC (E. faecalis E7406; Enterococcus faecalis, VRE): 0.0625 µg/mL (≈ 0.0349 µM); MIC (E. faecalis E7604; Enterococcus faecalis, VRE): 0.063 µg/mL (≈ 0.0351 µM) |
